Assay results: patent US20240116845A1, “INDENE COMPOUNDS, PHARMACEUTICAL COMPOSITIONS THEREOF, AND THEIR THERAPEUTIC APPLICATIONS” (NucMito Pharmaceuticals Co., Ltd., priority 2021, published 2024)

Legend:
Assay type in all cases: cell-based
[1] = tested on: HeLa (cervical cancer); experiment: Antiproliferative activity, CCK-8 cell viability; settings: Homo sapiens, 72 h, read-out: Inhibition of Cancerous Cells, HELA
Method: (§1) The antiproliferative activity of a compound was determined in the following cell lines: MDA-MB-231 (breast cancer), HepG2 (liver cancer), SW480 (colon cancer), B16F10 (malignant melanoma), A431 (epidermoid carcinoma), A549 (lung adenocarcinoma), and HeLa (cervical cancer). MDA-MB-231, HepG2, SW480, B16F10, and A431 cells were cultured in Dulbecco's modified Eagle's medium (DMEM) containing 10% fetal bovine serum (FBS). HeLa cells were cultured in MEM/EBSS (MEM) containing 10% FBS. A549 cells were maintained in Kaighn's modification of Ham's F-12 medium containing 10% FBS. The Cell Counting Kit-8 (CCK-8) assay was used to determine the cell viability of cells following treatment with the compound.
(§2) Briefly, cells were seeded in a 96-well plate at a density of 2,000-5,000 cells/well. Following attachment, the cells were treated with the compound in media at a compound concentration of 3.3 μM, 10 μM, or 30 μM, or DMSO as a control. After the cells were incubated at 37° C. for 72 h, the CCK-8 solution (10 μL) was added to each well. After incubation at 37° C. for 4 h, the absorbance value of each well was determined using a multi-well plate reader at 450 nm. The percentage of cell viability was determined with respect to the DMSO-treated cells. The results were summarized in Table 2-4 below, wherein A represents no less than 50% inhibition of cell growth; B represents less than 50% but no less than 30% inhibition of cell growth; C represents less than 30% inhibition of cell growth.

[2] = tested on: A549 (lung adenocarcinoma); experiment: Antiproliferative activity, CCK-8 cell viability; settings: Homo sapiens, 72 h, read-out: Inhibition of Cancerous Cells, A549
Method: as §1, §2

[3] = tested on: B16F10 (malignant melanoma); experiment: Antiproliferative activity, CCK-8 cell viability; settings: Mus musculus, B16-F10, 72 h, read-out: Inhibition of Cancerous Cells, B16F10
Method: as §1, §2

[4] = tested on: SW480 (colon cancer); experiment: Antiproliferative activity, CCK-8 cell viability; settings: Homo sapiens, 72 h, read-out: Inhibition of Cancerous Cells, SW480
Method: as §1, §2

[5] = tested on: HepG2 (liver cancer); experiment: Antiproliferative activity, CCK-8 cell viability; settings: Homo sapiens, 72 h, read-out: Inhibition of Cancerous Cells, HepG2
Method: as §1, §2

[6] = tested on: MDA-MB-231 (breast cancer); experiment: Antiproliferative activity, CCK-8 cell viability; settings: Homo sapiens, 72 h, read-out: Inhibition of Cancerous Cells, MDA-MB-231
Method: as §1, §2

[7] = tested on: alpha-smooth muscle actin (α-SMA); experiment: Inhibition of TGF-β induced expression of alpha-smooth muscle actin in CFSC cells (western blot); settings: compound at 10 μM, TGF-β (10 ng/mL), 24 hours
Method: The ability of a compound to inhibit the TGF-β induced expression of alpha-smooth muscle actin (α-SMA) was evaluated in CCl4-treated fat storing (CFSC) cells. α-SMA is considered as a reliable marker of hepatic stellate cell activation and a key biomarker for liver fibrosis.
CFSC cells maintained in a DMEM medium supplemented with 10% fetal bovine serum were seeded to 12-well culture dishes and grown to a confluence of 60-70% the next day. Culture was changed to a serum-free DMEM medium and the cells were treated with the compound at 10 μM in the presence of TGF-β (10 ng/mL). The cells were incubated for another 24 hours. All culture was maintained at 37° C. in 5% carbon dioxide.
An NP-40 lysate solution (50 mM Tris, pH 7.4, 150 mM NaCl, 1% NP-40) with EDTA free cocktail added was used to lyse the cells on ice for 30 min. The lysate was collected and centrifuged at 4° C. for 10 min at 12,000 rpm. The pellet was discarded and the supernatant was transferred to a new tube. The cell lysate was loaded with 5× loading buffer and boiled for 10 min, resolved by 10% SDS-polyacrylamide gel electrophoresis (SDS-PAGE), and transferred to a PVDF membrane. The membrane was blocked with 5% skim milk in Tris-buffered saline and TWEEN® 20 (TBST; 10 mM Tris-HCl, pH 8.0, 150 mM NaCl, 0.1% TWEEN® 20) for 1 h at room temperature and then incubated with α-SMA and β-actin antibodies overnight at 4° C. After washing twice with TBST, the membrane was probed with a […] anti-immunoglobulin (1:5000 dilution) for 1 h at room temperature. After two subsequent rinses in TBST, immunoreactive products were reacted with ECL and visualized by a UVP CHEMSTUDIO™ imaging system. The western blotting bands are quantitated using an ImageJ software. The percentage of inhibition was obtained by calculating the percentage decrease in the band intensity compared to the one treated with TGF-β only.
The results are summarized in Table 1, where A represents a value no less than 80/% inhibition, B represents a value less than 80% but no less than 50% inhibition, C represents a value less than 50% but no less than 30% inhibition, and D represents a value less than 30% inhibition with a compound at 10 μM.

[8] = compound concentration of 3.3 μM
[9] = compound concentration of 10 μM
[10] = compound concentration of 30 μM

CC1=C(CC(=O)O)c2cc(F)ccc2/C1=C\c1cccc(Oc2ccc(C(F)(F)F)cc2)c1 [Compound D26, 2-[(1Z)-5-Fluoro-2-methyl-1-({3-[4-trifluoromethylphenoxy]phenyl}-methylidene)-1H-inden-3-yl]acetic acid]
inhibition at 3.3 µM [1, 8]: 30 to 50%
inhibition at 10 µM [1, 9]: ≥ 50%
inhibition at 30 µM [1, 10]: ≥ 50%
inhibition at 3.3 µM [2, 8]: 30 to 50%
inhibition at 10 µM [2, 9]: 30 to 50%
inhibition at 30 µM [2, 10]: ≥ 50%
inhibition at 3.3 µM [3, 8]: 30 to 50%
inhibition at 10 µM [3, 9]: ≥ 50%
inhibition at 30 µM [3, 10]: ≥ 50%
inhibition at 3.3 µM [4, 8]: < 30%
inhibition at 10 µM [4, 9]: < 30%
inhibition at 30 µM [4, 10]: ≥ 50%
inhibition at 3.3 µM [5, 8]: 30 to 50%
inhibition at 10 µM [5, 9]: ≥ 50%
inhibition at 30 µM [5, 10]: ≥ 50%
inhibition at 3.3 µM [6, 8]: ≥ 50%
inhibition at 10 µM [6, 9]: ≥ 50%
inhibition at 30 µM [6, 10]: ≥ 50%
inhibition at 10 µM [7]: ≥ 80%

CON(C)C(=O)CC1=C(C)/C(=C/c2ccc(C(C)(C)C)cc2)c2ccc(F)cc21 [Compound B4, (Z)-2-(1-(4-(Tert-butyl)benzylidene)-5-fluoro-2-methyl-1H-inden-3-yl)-N-methoxy-N-methylacetamide]
inhibition at 10 µM [7]: ≥ 80%

CC1=C(CC(=O)O)c2cc(F)ccc2/C1=C\c1cccc(Oc2ccc(C#N)cc2)c1 [Compound D24, 2-[(1Z)-5-Fluoro-2-methyl-1-({3-[4-cyanophenoxy]phenyl}methylidene)-1H-inden-3-yl]acetic acid]
inhibition at 10 µM [7]: ≥ 80%

CC(C)CC1=C(CC(=O)O)c2cc(F)ccc2/C1=C\c1ccc(Oc2ccc(F)cc2)cc1 [Compound D8, 2-[(1Z)-5-Fluoro-1-{[4-(4-fluorophenoxy)phenyl]methylidene}-2-(2-methyl-propyl)-1H-inden-3-yl]acetic acid]
inhibition at 10 µM [7]: ≥ 80%

CC1=C(CC(=O)NO)c2cc(F)ccc2/C1=C\c1ccc(Oc2ccc(C(C)C)cc2)cc1 [Compound D1, 2-[(1Z)-5-Fluoro-2-methyl-1-({4-[4-(propan-2-yl)phenoxy]phenyl}methylidene)-1H-inden-3-yl]-N-hydroxyacetamide]
inhibition at 10 µM [7]: ≥ 80%

CC1=C(CC(=O)O)c2cc(F)ccc2/C1=C/c1ccc(Oc2ccccc2)cc1 [Compound E3, 2-[(1E)-5-Fluoro-2-methyl-1-[(4-phenoxyphenyl)methylidene]-1H-inden-3-yl]acetic acid]
inhibition at 10 µM [7]: ≥ 80%

CC1=C(CC(=O)O)c2cc(F)ccc2/C1=C\c1ccc(Oc2cccc(C(C)(C)C)c2)cc1 [Compound D3, 2-[(1Z)-5-Fluoro-2-methyl-1-({4-[3-(tert-butyl)phenoxy]phenyl}methylidene)-1H-inden-3-yl]acetic acid]
inhibition at 10 µM [7]: ≥ 80%

CC1=C(CC(=O)NO)c2cc(F)ccc2/C1=C\c1ccnc2ccccc12 [Compound C6, (Z)-2-(5-Fluoro-2-methyl-1-(quinolin-4-ylmethylene)-1H-inden-3-yl)-N-hydroxyacetamide]
inhibition at 10 µM [7]: ≥ 80%

COc1ccc2c(c1)C(CC(=O)O)=C(C)/C2=C/c1ccc(Oc2ccccc2)cc1 [Compound D11, 2-[(1Z)-5-Methoxy-2-methyl-1-[(4-phenoxyphenyl)methylidene]-1H-inden-3-yl]acetic acid]
inhibition at 10 µM [7]: ≥ 80%

CC1=C(CC(=O)O)c2cc(F)ccc2/C1=C\c1ccc(Oc2ccc(C(F)(F)F)cc2)cc1 [Compound D7, 2-[(1Z)-5-Fluoro-2-methyl-1-({4-[4-(trifluoromethyl)phenoxy]phenyl}-methylidene)-1H-inden-3-yl]acetic acid]
inhibition at 10 µM [7]: ≥ 80%

CC1=C(CC(=O)O)c2cc(F)ccc2/C1=C\c1cccc(Oc2ccccc2)c1 [Compound D18, (Z)-2-(5-Fluoro-2-methyl-1-(3-phenoxybenzylidene)-1H-inden-3-yl)acetic acid]
inhibition at 10 µM [7]: ≥ 80%

CC1=C(CC(=O)O)c2cc(F)ccc2/C1=C\c1ccc(F)cc1OCc1ccccc1 [Compound A7, 2-[(1Z)-1-{[2-(Benzyloxy)-4-fluorophenyl]methylidene}-5-fluoro-2-methyl-1H-inden-3-yl]acetic acid]
inhibition at 10 µM [7]: < 30%

CC1=C(CC(=O)O)c2cc(F)ccc2/C1=C/c1ccc(Oc2ccc(F)cc2)cc1 [Compound E2, 2-[(1E)-5-Fluoro-2-methyl-1-({4-[4-fluorophenoxy]phenyl}methylidene)-1H-inden-3-yl]acetic acid]
inhibition at 10 µM [7]: ≥ 80%

CC1=C(CC(=O)O)c2cc(F)ccc2/C1=C\c1ccc(COc2ccc(F)cc2)cc1C(F)(F)F [Compound A14, 2-[(1Z)-5-Fluoro-1-({4-[(4-fluorophenoxy)methyl]-2-(trifluoromethyl)phenyl}-methylidene)-2-methyl-1H-inden-3-yl]acetic acid]
inhibition at 10 µM [7]: ≥ 80%

CC1=C(CC(=O)NO)c2cc(F)ccc2/C1=C\c1ccc(C)c2ccccc12 [Compound C2, (Z)-2-(5-Fluoro-2-methyl-1-((4-methylnaphthalen-1-yl)methylene)-1H-inden-3-yl)-N-hydroxyacetamide]
inhibition at 10 µM [7]: ≥ 80%
